Measured values from ChEMBL document CHEMBL6134907, “Synthesis of 5,9- and 5,8-Diaminoalkoxy Substituted Benzophenanthridinone Analogues as Tyrosyl-DNA Phosphodiesterase 1 Inhibitors and Their Radiosensitizing Activity” (J Med Chem, 2025).
Active and inactive are the calls of the source. The calls are words filed in the database; no cut-off is given here.

Assays:
HCT-116 [1] = experiment: Cytotoxicity against human HCT116 cells assessed as cell killing at 0.5 uM relative to control; format: functional
RKO = experiment: Synergistic cytotoxicity against human RKO cells assessed as combination index at 5 uM incubated for 48 hrs in presence of 2GY ionizing radiation (IR); format: functional
[2] = Toxicity in human NCM460 cells assessed as 2GY ionizing radiation radiosensitisation mediated cell killing; format: cell-based
[3] = AUClast in male Sprague-Dawley rat at 1 mg/kg, iv measured up to 24 hrs by LCMS-MS analysis; format: ADME, organism-based; conditions: in vivo
[4] = MRT infinity in male Sprague-Dawley rat at 1 mg/kg, iv measured up to 24 hrs by LCMS-MS analysis; format: ADME, organism-based; conditions: in vivo
[5] = Tmax in male Sprague-Dawley rat at 5 mg/kg, IG measured up to 24 hrs by LCMS-MS analysis; format: ADME, organism-based; conditions: in vivo, po
[6] = Cmax in male Sprague-Dawley rat at 5 mg/kg, IG measured up to 24 hrs by LCMS-MS analysis; format: ADME, organism-based; conditions: in vivo, po
[7] = AUClast in male Sprague-Dawley rat at 5 mg/kg, IG measured up to 24 hrs by LCMS-MS analysis; format: ADME, organism-based; conditions: in vivo, po
[8] = Half life in male Sprague-Dawley rat at 5 mg/kg, IG measured up to 24 hrs by LCMS-MS analysis; format: ADME, organism-based; conditions: in vivo, po
HCT-116 [9] = experiment: In vivo radiosensitizing activity in human HCT-116 cells xenografted in BALB/c mouse assessed as sensitization of 1 GY ionizing radiation induced tumor growth inhibition at 10 mg/kg, ip every day for 14 days radiated for every 2 days once; format: functional, organism-based; conditions: time 14.0 day
HCT-116 [10] = experiment: In vivo radiosensitizing activity in human HCT-116 cells xenografted in BALB/c mouse assessed as sensitization of 1 GY ionizing radiation induced reduction in tumor weight at 10 mg/kg, ip every day for 14 days radiated for every 2 days once (reference value: 35%); format: functional; design: scale not given: the % may be the effect or the level left; conditions: time 14 day
[11] = Toxicity in BALB/c mouse xenografted with human HCT-116 cells assessed as change in body weight at 1 mg/kg, ip every day for 14 days; format: organism-based; conditions: in vivo, 336 h, time 14 day
[12] = Toxicity in BALB/c mouse xenografted with human HCT-116 cells assessed as change in spleen weight at 1 to 10 mg/kg, ip every day for 14 days; format: organism-based; conditions: in vivo, 336 h, dose 1-10 mg/kg, time 14 day
[13] = Toxicity in BALB/c mouse xenografted with human HCT-116 cells assessed as change in kidney weight at 1 to 10 mg/kg, ip every day for 14 days radiated for every 2 days once; format: organism-based; conditions: in vivo, 336 h, dose 1-10 mg/kg, time 14 day
[14] = target: Tyrosyl-DNA phosphodiesterase 1 (Homo sapiens, UniProt Q9NUW8); experiment: Inhibition of TDP1 in human SgTDP1-HCT-116 cells (TDP1 knockout) at 1.11 mM; format: cell-based
HCT-116 [15] = experiment: Synergistic cytotoxicity against human SgTDP1-HCT-116 cells (TDP1 knockout) assessed as combination index at 0.5 uM incubated for 48 hrs in presence of 2GY ionizing radiation; format: functional
HCT-116 [16] = experiment: Synergistic cytotoxicity against human SgTDP1-HCT-116 cells (TDP1 knockout) assessed as combination index at 1 uM incubated for 48 hrs in presence of 2GY ionizing radiation; format: functional
HCT-116 [17] = experiment: Synergistic cytotoxicity against human HCT116 cells assessed as combination index at 1 uM incubated for 48 hrs in presence of 2GY ionizing radiation (IR); format: functional
HCT-116 [18] = experiment: Reduction of XRCC4 expression in wild type human HCT-116 cells assessed as reduction in mRNA level at 5 to 10 uM measured after 24 hrs by qRT-PCR analysis; format: functional, cell-based; conditions: dose 5-10 µM
HCT-116 [19] = experiment: Reduction of XRCC4 expression in wild type human HCT-116 cells assessed as reduction in mRNA level at 5 to 10 uM radiated with 4 GY ionizing radiation (IR) measured after 24 hrs by qRT-PCR analysis; format: functional, cell-based; conditions: dose 5-10 µM
HCT-116 [20] = experiment: Effect on Ku70/80 expression in wild type human HCT-116 cells assessed as change in protein level at 5 to 10 uM measured after 24 hrs by Western blot analysis; format: functional, cell-based; conditions: dose 5-10 µM
HCT-116 [21] = experiment: Effect on Lig4 expression in wild type human HCT-116 cells assessed as change in mRNA level at 5 to 10 uM radiated with 4 GY ionizing radiation (IR) measured after 24 hrs by qRT-PCR analysis; format: functional, cell-based; conditions: dose 5-10 µM
HCT-116 [22] = experiment: Reduction in recruitment of XRCC4 at damage site of human HCT-116 cells at 5 uM measured after 3 hrs by fluorescence colocalization assay; format: functional, cell-based
HCT-116 [23] = experiment: Induction of gamma-H2AX level in human HCT-116 cells at 5 uM measured after 3 hrs by Western blot analysis; format: functional, cell-based
HCT-116 [24] = experiment: Induction of ionizing radiation (IR) induced gamma-H2AX level in human HCT-116 cells at 5 uM measured after 3 hrs by Western blot analysis; format: functional, cell-based
HCT-116 [25] = experiment: Upregulation of p53 signaling pathway in human HCT-116 cells at 5 uM measured after 24 hrs by KEGG analysis; format: functional, cell-based
HCT-116 [26] = experiment: Downregulation of cell cycle pathway in human HCT-116 cells at 5 uM measured after 24 hrs by KEGG analysis; format: functional, cell-based
HCT-116 [27] = experiment: Induction of 4GY ionizing radiation (IR) induced ROS production in human HCT-116 cells assessed as mitochondrial dysfunction by measuring mitochondrial membrane potential loss at 10 uM measured after 24 hrs by JC-1 staining analysis; format: functional, cell-based
HCT-116 [28] = experiment: Induction of cell cycle arrest in human HCT-116 cells assessed as accumulation of cells at G0/G1 phase at 5 uM measured after 24 hrs by Propidium iodide (PI) staining based assay (reference value: 69.35%); format: functional
HCT-116 [29] = experiment: Induction of cell cycle arrest in human HCT-116 cells assessed as accumulation of cells at G2/M phase at 5 uM measured after 24 hrs by Propidium iodide (PI) staining based assay (reference value: 15.77%); format: functional
[30] = Induction of 4GY ionizing radiation (IR) induced cell cycle arrest in human HCT-116 cells assessed as accumulation of cells at G2/M phase at 5 uM measured after 24 hrs by Propidium iodide (PI) staining based assay (reference value: 20.51%); format: functional
[31] = Induction of 4GY ionizing radiation (IR) induced cell cycle arrest in human HCT-116 cells assessed as accumulation of cells at G2/M phase at 10 uM measured after 24 hrs by Propidium iodide (PI) staining based assay (reference value: 20.51%); format: functional
HCT-116 [32] = experiment: Induction of 4GY ionizing radiation (IR) induced apoptosis in human HCT-116 cells assessed as late apoptotic cells at 5 uM measured after 24 hrs by FITC Annexin V/PI apoptosis detection assay (reference value: 14.32%); format: functional
HCT-116 [33] = experiment: Induction of 4GY ionizing radiation (IR) induced apoptosis in human HCT-116 cells assessed as viable cells at 10 uM measured after 24 hrs by FITC Annexin V/PI apoptosis detection assay (reference value: 66.88%); format: functional; conditions: read-out: Activity
HCT-116 [34] = experiment: Induction of apoptosis in human HCT-116 cells assessed as induction of 4GY ionizing radiation (IR) induced cleaved Caspase-9 at 5 uM measured after 24 hrs by Western blot analysis; format: functional, cell-based

Tyrosyl-DNA phosphodiesterase 1, sequence (Q9NUW8 whole entry): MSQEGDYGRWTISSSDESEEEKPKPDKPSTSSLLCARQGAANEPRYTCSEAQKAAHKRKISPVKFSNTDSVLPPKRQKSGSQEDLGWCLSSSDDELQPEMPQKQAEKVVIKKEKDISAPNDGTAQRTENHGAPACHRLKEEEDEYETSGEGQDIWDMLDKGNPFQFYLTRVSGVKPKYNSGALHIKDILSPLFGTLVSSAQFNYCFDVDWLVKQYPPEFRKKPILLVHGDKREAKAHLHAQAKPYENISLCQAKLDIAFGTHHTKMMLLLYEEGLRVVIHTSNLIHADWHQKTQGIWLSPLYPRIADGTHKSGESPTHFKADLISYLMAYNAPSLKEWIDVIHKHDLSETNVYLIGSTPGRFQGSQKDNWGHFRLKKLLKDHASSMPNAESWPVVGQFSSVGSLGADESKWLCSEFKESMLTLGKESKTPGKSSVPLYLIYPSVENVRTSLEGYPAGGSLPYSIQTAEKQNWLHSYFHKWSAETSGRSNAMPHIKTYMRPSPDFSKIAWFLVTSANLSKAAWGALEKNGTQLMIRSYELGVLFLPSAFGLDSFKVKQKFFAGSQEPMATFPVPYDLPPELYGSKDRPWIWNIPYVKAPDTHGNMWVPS

## COc1cc2c(=O)n(CCN(C)C)c3c4cc5c(cc4ccc3c2cc1OCCN1CCOCC1)OCO5
HCT-116 [1]
  Activity: 11%
RKO
  CI: <0.3
[2]
  Activity: Non-toxic
[3]
  AUC(0-t) at 24 h: 247 ng·h/mL
[4]
  MRT inf: 3.33 h
[5]
  Tmax: 4 h
[6]
  Cmax: 70.3 ng/mL
[7]
  AUC(0-t) at 24 h: 779 ng·h/mL
[8]
  half-life: 4.64 h
HCT-116 [9]
  TGI: Active
HCT-116 [10]
  Activity: 77%
[11]
  Activity: Non-toxic
[12]
  Activity: Non-toxic
[13]
  Activity: Non-toxic
[14]
  inhibition: inactive
HCT-116 [15]
  CI: 0.94
HCT-116 [16]
  CI: 0.46
HCT-116 [17]
  Activity: 28%
HCT-116 [18]
  Activity: Active
HCT-116 [19]
  Activity: Active
HCT-116 [20]
  Activity: inactive
HCT-116 [21]
  Activity: inactive
HCT-116 [22]
  Activity: Active
HCT-116 [23]
  Activity: Active
HCT-116 [24]
  Activity: Active
HCT-116 [25]
  Activity: Active
HCT-116 [26]
  Activity: Active
HCT-116 [27]
  Activity: Active
HCT-116 [28]
  Activity: 69.89%
HCT-116 [29]
  Activity: 18.4%
[30]
  Activity: 43.13%
[31]
  Activity: 68.1%
HCT-116 [32]
  Activity: 18.62%
HCT-116 [33]
  viability at 10 µM: 55.5%
HCT-116 [34]
  Activity: Active
